Assay in all cases: KinomeScan profiling
Assay type in all cases: binding

One test addresses T1, TSSK1B (Homo sapiens, UniProt Q9BXA7).
T1 sequence (Q9BXA7 1-367): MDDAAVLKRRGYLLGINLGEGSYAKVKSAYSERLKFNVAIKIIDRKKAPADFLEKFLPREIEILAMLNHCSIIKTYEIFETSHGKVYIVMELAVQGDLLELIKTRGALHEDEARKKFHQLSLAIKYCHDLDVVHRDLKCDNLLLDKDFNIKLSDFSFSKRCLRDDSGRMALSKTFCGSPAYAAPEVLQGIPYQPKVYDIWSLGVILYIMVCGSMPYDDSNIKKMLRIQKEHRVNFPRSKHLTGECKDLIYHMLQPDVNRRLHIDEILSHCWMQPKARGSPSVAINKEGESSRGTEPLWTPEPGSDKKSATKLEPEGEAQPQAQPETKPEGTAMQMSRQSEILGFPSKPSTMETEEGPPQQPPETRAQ
Particulars: read-out: % control. The gist of the method:
(§1)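 Compounds were screened at 1 μM in DMSO across a 468-kinase KinomeScan panel. Binding was expressed as % control, scaled between a positive control (0%) and DMSO (100%) using luminescence signal. A value under 35% counted as active.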

The target of test [1] is T2, RSK4(Kin.Dom.1-N-terminal) (Homo sapiens, UniProt Q9UK32).
T2 construct: ribosomal S6 Kinase 4 (RSK4)(Kin.Dom.1-N-terminal)
T2 sequence (Q9UK32 73-330 limits assumed): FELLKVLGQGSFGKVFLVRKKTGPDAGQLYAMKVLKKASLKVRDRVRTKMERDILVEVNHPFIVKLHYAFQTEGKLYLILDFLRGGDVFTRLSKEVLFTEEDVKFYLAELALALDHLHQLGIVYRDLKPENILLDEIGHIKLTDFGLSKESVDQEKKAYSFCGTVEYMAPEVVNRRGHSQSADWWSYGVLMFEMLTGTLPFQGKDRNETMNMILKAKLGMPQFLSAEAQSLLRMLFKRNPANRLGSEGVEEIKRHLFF
The note with it: read-out: % control. In a few lines: as §1

The target in another test is DMPK2 (Homo sapiens, UniProt Q6DT37). Particulars: DMPK2, 1 μM; read-out: % control. In a few lines:
as §1

The target of a further test is T3, TAOK2 (Homo sapiens, UniProt Q9UL54).
T3 construct: purchased KinomeScan® (panel service)
T3 sequence (Q9UL54 1-1235): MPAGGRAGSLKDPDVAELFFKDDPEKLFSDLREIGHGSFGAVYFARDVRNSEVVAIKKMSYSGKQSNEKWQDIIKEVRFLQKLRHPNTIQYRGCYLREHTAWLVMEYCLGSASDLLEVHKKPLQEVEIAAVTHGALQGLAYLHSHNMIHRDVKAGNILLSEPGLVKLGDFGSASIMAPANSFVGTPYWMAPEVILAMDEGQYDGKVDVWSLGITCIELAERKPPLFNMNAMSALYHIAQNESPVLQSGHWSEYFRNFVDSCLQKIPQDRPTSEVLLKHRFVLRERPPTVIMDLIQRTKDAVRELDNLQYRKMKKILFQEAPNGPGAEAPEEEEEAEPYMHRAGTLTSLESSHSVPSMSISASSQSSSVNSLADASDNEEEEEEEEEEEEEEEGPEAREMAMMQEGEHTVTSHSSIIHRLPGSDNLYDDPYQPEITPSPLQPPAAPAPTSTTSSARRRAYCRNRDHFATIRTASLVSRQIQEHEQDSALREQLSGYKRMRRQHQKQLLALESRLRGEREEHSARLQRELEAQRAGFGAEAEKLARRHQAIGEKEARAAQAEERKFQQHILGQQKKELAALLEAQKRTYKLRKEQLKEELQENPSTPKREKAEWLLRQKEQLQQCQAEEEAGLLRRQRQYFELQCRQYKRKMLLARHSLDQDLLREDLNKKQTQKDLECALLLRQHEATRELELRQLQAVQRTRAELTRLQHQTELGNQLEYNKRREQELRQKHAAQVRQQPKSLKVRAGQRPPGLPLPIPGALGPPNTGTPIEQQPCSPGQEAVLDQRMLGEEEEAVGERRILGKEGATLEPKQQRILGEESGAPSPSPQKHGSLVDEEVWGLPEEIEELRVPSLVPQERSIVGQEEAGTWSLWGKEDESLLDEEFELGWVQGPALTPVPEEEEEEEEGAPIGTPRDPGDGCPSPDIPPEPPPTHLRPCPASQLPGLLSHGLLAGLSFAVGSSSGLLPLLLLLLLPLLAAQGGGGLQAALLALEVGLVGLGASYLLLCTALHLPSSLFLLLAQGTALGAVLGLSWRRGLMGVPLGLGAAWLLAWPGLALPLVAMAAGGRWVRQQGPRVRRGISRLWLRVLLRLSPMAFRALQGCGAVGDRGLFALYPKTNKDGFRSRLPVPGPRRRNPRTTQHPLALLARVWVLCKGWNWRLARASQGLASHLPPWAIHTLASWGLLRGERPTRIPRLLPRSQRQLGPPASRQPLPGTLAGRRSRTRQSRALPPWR
Particulars: TAOK2, 1 μM; read-out: % control. In a few lines:
as §1

For the next test, the target named is T4, PRKD3 (Homo sapiens, UniProt O94806).
T4 sequence (O94806 1-890): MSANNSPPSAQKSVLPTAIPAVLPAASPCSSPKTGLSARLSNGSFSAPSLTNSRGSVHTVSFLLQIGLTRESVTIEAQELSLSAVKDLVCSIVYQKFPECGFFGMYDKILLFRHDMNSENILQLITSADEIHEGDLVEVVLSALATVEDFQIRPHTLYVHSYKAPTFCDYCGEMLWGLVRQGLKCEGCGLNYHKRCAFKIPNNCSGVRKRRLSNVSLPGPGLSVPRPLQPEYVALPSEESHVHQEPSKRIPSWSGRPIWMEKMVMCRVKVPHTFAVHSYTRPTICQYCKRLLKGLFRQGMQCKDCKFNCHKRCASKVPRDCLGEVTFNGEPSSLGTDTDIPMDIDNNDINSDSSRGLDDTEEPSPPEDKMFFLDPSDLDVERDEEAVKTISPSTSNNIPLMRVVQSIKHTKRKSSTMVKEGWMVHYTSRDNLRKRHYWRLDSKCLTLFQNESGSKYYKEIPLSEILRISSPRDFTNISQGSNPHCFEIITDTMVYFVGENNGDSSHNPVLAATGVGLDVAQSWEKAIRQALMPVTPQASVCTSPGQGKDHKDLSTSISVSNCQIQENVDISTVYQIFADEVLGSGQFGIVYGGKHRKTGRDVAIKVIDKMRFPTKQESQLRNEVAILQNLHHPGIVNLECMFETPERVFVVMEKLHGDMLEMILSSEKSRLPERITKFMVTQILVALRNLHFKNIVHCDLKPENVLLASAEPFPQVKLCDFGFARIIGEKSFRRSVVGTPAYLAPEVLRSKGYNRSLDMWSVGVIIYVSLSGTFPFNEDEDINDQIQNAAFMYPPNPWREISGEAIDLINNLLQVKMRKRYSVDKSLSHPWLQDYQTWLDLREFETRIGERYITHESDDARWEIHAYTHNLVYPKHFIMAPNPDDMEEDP
Particulars: PRKD3, 1 μM; read-out: % control. In a few lines: as §1

SMILES strings stand for the structures.

DMPK2, sequence (Q6DT37 whole entry): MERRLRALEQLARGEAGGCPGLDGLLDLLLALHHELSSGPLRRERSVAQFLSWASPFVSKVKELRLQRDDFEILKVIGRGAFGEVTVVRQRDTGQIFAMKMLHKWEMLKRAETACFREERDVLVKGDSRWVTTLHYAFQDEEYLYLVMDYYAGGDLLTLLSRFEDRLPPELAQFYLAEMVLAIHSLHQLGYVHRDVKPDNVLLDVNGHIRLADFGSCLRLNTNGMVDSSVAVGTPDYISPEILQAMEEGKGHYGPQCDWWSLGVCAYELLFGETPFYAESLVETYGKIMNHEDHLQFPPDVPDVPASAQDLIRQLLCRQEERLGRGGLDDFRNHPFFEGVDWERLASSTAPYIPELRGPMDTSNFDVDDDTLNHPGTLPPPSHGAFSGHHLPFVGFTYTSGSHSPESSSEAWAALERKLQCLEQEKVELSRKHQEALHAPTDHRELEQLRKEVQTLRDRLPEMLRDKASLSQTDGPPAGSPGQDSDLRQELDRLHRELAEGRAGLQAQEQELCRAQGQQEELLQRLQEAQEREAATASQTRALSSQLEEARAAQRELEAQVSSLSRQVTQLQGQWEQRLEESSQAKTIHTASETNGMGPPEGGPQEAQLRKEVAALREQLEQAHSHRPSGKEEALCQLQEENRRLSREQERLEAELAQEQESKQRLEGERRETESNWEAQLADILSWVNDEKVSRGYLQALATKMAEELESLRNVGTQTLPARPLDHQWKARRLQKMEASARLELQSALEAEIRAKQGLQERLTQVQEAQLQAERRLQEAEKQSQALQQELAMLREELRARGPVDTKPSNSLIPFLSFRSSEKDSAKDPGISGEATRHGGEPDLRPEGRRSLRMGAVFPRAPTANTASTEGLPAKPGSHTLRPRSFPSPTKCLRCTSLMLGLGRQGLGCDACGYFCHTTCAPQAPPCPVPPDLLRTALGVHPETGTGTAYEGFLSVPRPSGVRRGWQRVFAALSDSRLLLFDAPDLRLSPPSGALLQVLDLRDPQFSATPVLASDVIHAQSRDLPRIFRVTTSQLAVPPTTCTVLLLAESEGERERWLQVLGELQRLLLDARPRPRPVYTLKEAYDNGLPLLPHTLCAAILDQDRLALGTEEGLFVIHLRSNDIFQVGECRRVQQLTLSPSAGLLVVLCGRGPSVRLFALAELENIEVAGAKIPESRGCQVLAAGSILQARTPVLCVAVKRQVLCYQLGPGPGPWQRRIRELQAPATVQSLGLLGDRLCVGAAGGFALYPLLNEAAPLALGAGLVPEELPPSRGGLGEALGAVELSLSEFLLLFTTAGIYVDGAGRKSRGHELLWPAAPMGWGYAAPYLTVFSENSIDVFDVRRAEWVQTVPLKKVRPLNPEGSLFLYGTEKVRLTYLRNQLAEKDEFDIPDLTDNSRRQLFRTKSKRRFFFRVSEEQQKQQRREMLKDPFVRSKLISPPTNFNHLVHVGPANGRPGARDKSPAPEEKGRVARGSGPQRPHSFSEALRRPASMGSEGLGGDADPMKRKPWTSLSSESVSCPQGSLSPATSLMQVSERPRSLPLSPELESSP

With `CNc1c(-c2ccc(C(=O)N3CCC(N4CCOCC4)CC3)cc2)cnc2[nH]cc(Cl)c12` [Compound 96, (4-(3-chloro-4-(methylamino)-1H-pyrrolo[2,3-b]pyridin-5-yl)phenyl)(4-morpholinopiperidin-1-yl)methanone], the remaining binding at 1 µM at TSSK1B worked out at 100%; in test [1] it was 77%; on DMPK2, 91%; at TAOK2 it was 69%; at PRKD3 it was 13%.
On to `O=C(c1ccc(-c2cnc3[nH]cc(Cl)c3c2NC2CCCC2)cc1)N1CCC(N2CCOCC2)CC1` [Compound 101, (4-(3-chloro-4-(cyclopentylamino)-1H-pyrrolo[2,3-b]pyridin-5-yl)phenyl)(4-morpholinopiperidin-1-yl)methanone], for which the remaining binding at 1 µM at TSSK1B was 41%; in test [1] it was 100%; on DMPK2, 100%; at TAOK2, 81%; on PRKD3 it was 35%.
With `CNc1c(-c2cnn([C@H]3CCN(C(C)=O)C[C@@H]3F)c2)cnc2[nH]cc(Cl)c12` [Compound 77, 1-((3S,4S)-4-(4-(3-chloro-4-(methylamino)-1H-pyrrolo[2,3-b]pyridin-5-yl)-1H-pyrazol-1-yl)-3-fluoropiperidin-1-yl)ethan-1-one], the remaining binding at 1 µM on TSSK1B was 99%; in test [1], 32%; on DMPK2, 80%; at TAOK2 it was 69%; on PRKD3, 56%.

Values taken from patent US12275731B2, “Azaindole inhibitors of wild-type and mutant forms of LRRK2” (DANA-FARBER CANCER INSTITUTE, INC., priority 2018, dated 2025).
